The values that follow are results of earlier work, collected in patent US12357624B2, “Low dose pridopidine for Parkinson's Disease and other diseases associated with parkinsonism” (PRILENIA NEUROTHERAPEUTICS LTD., priority 2019, dated 2025).

The structures appear in SMILES notation.

The test system of the data set is B104 neuroblastoma cell line. The conditions noted are these: NE100 1 μM co-incubated with pridopidine; cited from earlier work.

Take `CCCN(CCC)CCc1ccc(OC)c(OCCc2ccccc2)c1` [NE100, reference compound]: the BDNF secretion entry was “BDNF secretion was inhibited”.
